The results in this text go back to patent publication US7465748B2, “Amide derivative” (Astellas Pharma Inc., priority 2003, dated 2008).

One assay concerns HSV-1 strain WT-51. Briefly: Cutaneous HSV-1 infection mouse model. Type of assay: in vivo, HR-1 hairless mouse. As to conditions: 10 mg/kg twice a day for 5 days from 3 hours after infection, lesion score for 17 days. On the procedure: Using a cutaneous HSV-1 infection mouse model prepared in accordance with the method of H. Machida et al. (Antiviral Res., 1992, 17, 133-143), in vivo activity of the compounds of the invention was tested. The skin of each HR-1 hairless mouse [female, 7 weeks of age] was scratched lengthwise and breadthwise several times using a needle and a virus suspension (HSV-1 strain WT-51, 1.5×10^4 PFU/15 μl) was droped to the scarified region for infection, while anesthetized with diethyl ether
Tested compounds were administered orally as a methyl cellulose suspension, except for compounds marked with asterisk which were dissolved in 20% Cremophor EL (Nakarai Tesuku)/20% polyethylene glycol (PEG) 400/60% H2O solution, starting at 3 hours after the infection, and then at a dose of 10 mg/kg twice a day for 5 days. The symptom of the skin lesion caused by HSV-1 infection were classified in the following scores for 17 days:
Score 0: no signs of infection.
Score 1: localized, barely perceptible small vesicles.
Score 2: slight vesicle spread.
Score 3: large patches of vesicles formed.
Score 4: zosteriform vesicles.
Score 5: large patches of ulcers formed.
Score 6: zosteriform with severe large ulcers.
Score 7: hind limb paralysis or death.
The AUC value was calculated from each group's mean disease score, and the disease inhibitory rate of the group administered with each test compound to the placebo group was calculated using the AUC.

Another assay has as its system VZV (strain CaQu). As to the kind of experiment: Anti-VZV activity assay (plaque reduction in HEF cells). Type of assay: cell-based, varicella zoster virus (VZV). The conditions noted are these: human embryonic fibroblast (HEF) cells infected with VZV strain CaQu, plaque count after 3 to 4 days. The protocol:
This assay was carried out in accordance with the method described by Shigeta S. (The Journal of Infectious Diseases, 147, 3, 576-584 (1983). Specifically, human embryonic fibroblast (HEF) cells were inoculated in a 96-well microtiter plate, using a growth culture medium [Eagle MEM (Nissui) supplemented with 10% (v/v) fetal bovine serum (FBS; Sigma)], for culturing in 5% CO2 at 37° C. for 4 days until a monolayer was formed. After washing the cells with a maintenance medium, the cells were inoculated with 100 μl/well of VZV (strain CaQu) which had been diluted to 20 to 30 pfu/100 μl with the maintenance medium (Eagle MEM supplemented with 2% FBS). The plate was centrifuged at 2,000 rpm for 20 minutes at room temperature and then incubated at 37° C. for 3 hours in an atmosphere of 5% CO2 to infect with VZV. After washing three times with the maintenance medium, 100 μl of each test drug diluted to an appropriate concentration with the maintenance medium was added to each well. After culturing the cells at 37° C. for 3 to 4 days in an atmosphere of 5% CO2, the cells were fixed with 100 μl/well of 10% formalin/PBS for 2 to 3 hours. […] After discarding the fixing solution and culture supernatant and subsequently washing the plate with water, a staining solution (0.025% Crystal Violet) was added at 50 μl/well for staining for 2 to 3 minutes, and then, the plate was washed with water and dried at 37° C. Cellular death is induced in the HEF cells infected with VZV, so that plaques of the dead cells are formed in the monolayer of the HEF cells.

A further assay relates to HSV-1 (strain KOS). As to the kind of experiment: Anti-HSV-1 activity assay (MTT, MRC-5 cells). The format is cell-based. As to conditions: HSV-1 strain KOS 50 TCID50/100 μl, 5 days culture, read-out: EC50 value (suppression of cellular death of MRC-5 cells via HSV-1 replication). On the procedure:
10,000 MRC-5 cells were inoculated and cultured in a 96-well microtiter plate, using the growth culture medium [Eagle MEM (Nissui) supplemented with 10% FBS] in 5% CO2 at 37° C. for 4 to 5 days until a monolayer was formed. After the cells were washed with the maintenance culture medium [Eagle MEM supplemented with 2% (v/v) FBS], 100 μl of the maintenance culture medium dissolving therein an appropriate concentration of a test reagent was added to each well. Immediately after the test drug was added, an HSV-1 (strain KOS) solution was inoculated at 50 TCID50 (50% tissue culture infectious dose)/100 μl. After the cells were cultured in 5% CO2 at 37° C. for 5 days, 20 μl of MTT solution [3-(4,5-dimethyl-2-thiazolyl)-2,5-diphenyl-2H-tetrazolium bromide; Sigma] (diluted with PBS to 7.5 mg/ml) was added to each well, for another 24-hour incubation. After the culture medium was discarded, 100 μl of a solvent (prepared by adding 10% Triton X 100 (v/v) and 0.4% hydrochloric acid to isopropanol) was added to each well, to solubilize the generated formazan. The absorbance at 540 nm or 690 nm was measured with a microplate reader. Based on the suppression ratio (%) of the cellular death of the MRC-5 cell via HSV-1 replication, the EC50 value of the test drug was calculated.

The mark [1] stands for this setting: oral, methyl cellulose suspension.
Setting [2] is: Human alphaherpesvirus 3, read-out: EC50 value (concentration to inhibit 50% of the plaques).
Setting [3] is: Human alphaherpesvirus 1, MRC5, 120 h.
Setting [4] is: asterisk: oral, dissolved in 20% Cremophor EL/20% PEG 400/60% H2O solution.

Each structure is given as a SMILES string. pEC50: −log10 of the molar value. Read-outs that look alike come from different tables or passages of the source.

Consider `Cc1ccc(N(CC(=O)Nc2ccc(-c3cocn3)cc2)C(=O)C2CCS(=O)(=O)CC2)cc1F` [Example 14, N-(3-fluoro-4-methylphenyl)-N-(2-{[4-(1,3-oxazol-4-yl)phenyl]amino)-2-oxoethyl)tetrahydro-2H-thiopyran-4-carboxamide 1,1-dioxide], for which the “Inhibitory activity (%) (disease inhibitory rate vs placebo from AUC of mean disease score)” value (from here on “Inhibitory activity (%)”) in the assay with HSV-1 strain WT-51 (setting [1]) was found to be 98%.

Consider `COc1ccc(N(CC(=O)Nc2ccc(-c3csc(N)n3)cc2)C(=O)C2CCC(O)CC2)cc1` (stereo not drawn) [Comparative Compound C, reference compound], for which the “Inhibitory activity (%)” value with HSV-1 strain WT-51 (setting [1]) worked out at 44%.

For the compound `Cc1ccc(N(CC(=O)Nc2ccc(-c3cocn3)cc2)C(=O)C2CCS(=O)(=O)CC2)c(C)c1` [Example 6, N-(2,4-dimethylphenyl)-N-(2-{[4-(1,3-oxazol-4-yl)phenyl]amino}-2-oxoethyl)tetrahydro-2H-thiopyran-4-carboxamide 1,1-dioxide], the “Inhibitory activity (%)” value with HSV-1 strain WT-51 (setting [1]) is 92%.

With `Nc1nc(-c2ccc(NC(=O)CN(C(=O)C3CCS(=O)(=O)CC3)c3ccc4c(c3)CCC4)cc2)cs1` [Comparative Compound D, reference compound], the “Inhibitory activity (%)” value in the assay on HSV-1 strain WT-51 (setting [1]) is 43%.

Take `COc1ccc(N(CC(=O)Nc2ccc(-c3csc(N)n3)cc2)C(=O)C2CCS(=O)(=O)CC2)cc1` [Comparative Compound B, reference compound]: the “Inhibitory activity (%)” value in the assay on HSV-1 strain WT-51 (setting [1]) is on record as 2%.

Take `Cc1cc(N(CC(=O)Nc2ccc(-c3ncon3)cc2)C(=O)C2CCS(=O)(=O)CC2)ccc1Cl` [Example 37, N-(4-chloro-3-methylphenyl)-N-(2-{[4-(1,2,4-oxadiazol-3-yl)phenyl]amino)-2-oxoethyl)tetrahydro-2H-thiopyran-4-carboxamide 1,1-dioxide]: the “Inhibitory activity (%)” value in the assay with HSV-1 strain WT-51 (setting [1]) is 100%.

Regarding `Nc1nc(-c2ccc(NC(=O)CN(C(=O)c3ccc(F)cc3)c3ccc4ncsc4c3)cc2)cs1` [Comparative Compound A, reference compound], the “Inhibitory activity (%)” value in the assay with HSV-1 strain WT-51 (setting [1]) was determined as 38%.

Take `Cc1cccc(C)c1N(CC(=O)Nc1ccc(-c2ncon2)cc1)C(=O)C1CCS(=O)(=O)CC1` [Example 27, N-(2,6-dimethylphenyl)-N-(2-([4-<(1,2,4-oxadiazol-3-yl)phenyl]amino}-2-oxoethyl)tetrahydro-2H-thiopyran-4-carboxamide 1,1-dioxide]: the values for the pEC50 with VZV (strain CaQu) (read-out: EC50 value (concentration to inhibit 50% of the plaques)) and in the assay with HSV-1 (strain KOS) were 7.00 and 7.22, respectively.

As to `O=C(CN(C(=O)C1CCS(=O)(=O)CC1)c1ccc2c(c1)CCC2)Nc1ccc(-c2cocn2)cc1` [Example 11, N-(2,3-dihydro-1H-inden-5-yl)-N-(2-{[4-(1,3-oxazol-4-yl)phenyl]amino)-2-oxoethyl)tetrahydro-2H-thiopyran-4-carboxamide 1,1-dioxide], the pEC50 in the assay with VZV (strain CaQu) (setting [2]) was 7.22; in the assay with HSV-1 (strain KOS) (setting [3]), 7.40.

For `Cc1cccc(C)c1N(CC(=O)Nc1ccc(-c2ccccn2)cc1)C(=O)C1CCS(=O)(=O)CC1` [Example 125], the pEC50 in the assay on VZV (strain CaQu) (setting [2]) is 6.72; in the assay with HSV-1 (strain KOS) (setting [3]), 7.55. The “Inhibitory activity (%)” value in the assay with HSV-1 strain WT-51 (setting [4]) is “*80%”.

For the compound `Cc1cccc(C)c1N(CC(=O)Nc1ccc(-n2nccn2)cc1)C(=O)C1CCS(=O)(=O)CC1` [Example 98], the pEC50 in the assay on VZV (strain CaQu) (setting [2]) is 6.85; in the assay on HSV-1 (strain KOS) (setting [3]), 7.38. For the same compound, the “Inhibitory activity (%)” value in the assay with HSV-1 strain WT-51 (setting [4]) is “*95%”.

`Cc1cccc(C)c1N(CC(=O)Nc1ccc(-c2cocn2)cc1)C(=O)C1CCS(=O)(=O)CC1` [Example 1, N-(2,6-dimethylphenyl)-N-(2-([4-(1,3-oxazol-4-yl)phenyl]amino)-2-oxoethyl)tetrahydro-2H-thiopyran-4-carboxamide 1,1-dioxide]: in the assay on HSV-1 strain WT-51 (setting [4]), the “Inhibitory activity (%)” value is reported as “*93%”.
